According to ChEMBL document CHEMBL3879915, “Methods of inhibiting PRMT5” (2014):

Assays:
PRMT5/MEP50 complex = PRMT5/MEP50 complex (Homo sapiens, UniProt O14744); assay: Inhibition of recombinant human fetal brain FLAG-tagged PRMT5/full length human testis 6His-tagged MEP50 expressed in baculovirus infected insect Sf9 cells using human histone H4 (1 to 15 residues) as substrate preincubated for 30 mins followed by [3H]-SAM addition
[1] = biological target: Protein arginine N-methyltransferase 5 (Homo sapiens, UniProt O14744); assay: Inhibition of PRMT5 in human Z138 cells assessed as decrease in di-methyl arginine levels after 96 hrs by Western blot method; assay type: cell-based
[2] = Antiproliferative activity against human Z138 cells assessed as inhibition of cell viability after 5 days by Cell-Titer Glo assay; assay type: functional, cell-based; settings: Z-138, 120 h

Protein arginine N-methyltransferase 5, sequence (O14744 whole entry): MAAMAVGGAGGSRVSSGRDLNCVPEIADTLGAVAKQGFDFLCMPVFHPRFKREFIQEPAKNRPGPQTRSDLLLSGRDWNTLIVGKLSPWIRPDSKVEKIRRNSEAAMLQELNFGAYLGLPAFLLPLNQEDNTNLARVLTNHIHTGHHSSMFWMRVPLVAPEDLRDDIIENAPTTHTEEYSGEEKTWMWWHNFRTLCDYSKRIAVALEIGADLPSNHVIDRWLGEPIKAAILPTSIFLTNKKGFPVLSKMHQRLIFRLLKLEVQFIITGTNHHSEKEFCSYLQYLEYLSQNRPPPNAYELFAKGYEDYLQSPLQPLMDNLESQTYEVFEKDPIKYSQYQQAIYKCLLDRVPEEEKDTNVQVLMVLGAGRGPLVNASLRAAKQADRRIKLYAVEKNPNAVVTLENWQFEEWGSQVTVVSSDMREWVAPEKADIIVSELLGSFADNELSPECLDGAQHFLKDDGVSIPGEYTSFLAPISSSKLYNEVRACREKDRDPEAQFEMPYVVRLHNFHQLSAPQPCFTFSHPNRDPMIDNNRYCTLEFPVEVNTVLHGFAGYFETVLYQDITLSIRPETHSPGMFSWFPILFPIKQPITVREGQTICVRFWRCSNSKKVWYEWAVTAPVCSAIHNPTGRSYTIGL
PRMT5/MEP50 complex, sequence (O14744 whole entry, the tested form may be a part): as the sequence (O14744 whole entry) above
PRMT5/MEP50 complex, sequence (Q9BQA1 whole entry, further chain, the tested form may be a part): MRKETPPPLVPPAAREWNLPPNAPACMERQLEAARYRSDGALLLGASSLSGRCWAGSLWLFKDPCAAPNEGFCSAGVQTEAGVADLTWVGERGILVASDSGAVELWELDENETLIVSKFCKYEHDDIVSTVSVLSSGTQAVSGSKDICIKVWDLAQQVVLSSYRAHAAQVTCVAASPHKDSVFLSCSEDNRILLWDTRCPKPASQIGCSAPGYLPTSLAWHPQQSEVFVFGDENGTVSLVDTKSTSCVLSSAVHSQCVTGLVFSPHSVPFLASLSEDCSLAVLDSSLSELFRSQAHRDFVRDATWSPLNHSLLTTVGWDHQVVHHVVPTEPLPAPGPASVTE

Question: Which IC50 (PRMT5/MEP50 complex) does the source give for `O=C(COc1ccccc1C1CCNC1)NCC(O)CN1CCc2ccccc2C1` (centres undefined) here?
Answer: 1000 to 10000 nM

Question: What about the EC50 [1] of the same molecule?
Answer: 1000 to 10000 nM

Question: And the EC50 [2]?
Answer: > 20000 nM

Question: With `CC(=O)N1CCc2c(cccc2OCC(=O)NCC(O)CN2CCc3ccccc3C2)C1` (centres undefined) as the molecule, how does the IC50 (PRMT5/MEP50 complex) read?
Answer: < 100 nM

Question: And the EC50 [1]?
Answer: < 100 nM

Question: And the EC50 [2]?
Answer: 1000 to 10000 nM

Question: For `O=C(COc1cccc2c1OCCO2)NCC(O)CN1CCc2ccccc2C1` (centres undefined), which IC50 (PRMT5/MEP50 complex) is on record?
Answer: < 100 nM

Question: And the EC50 [1]?
Answer: < 100 nM

Question: What about the EC50 [2] of the same molecule?
Answer: 1000 to 10000 nM

Question: For `CN(C)S(=O)(=O)c1ccccc1OCC(=O)NCC(O)CN1CCc2ccccc2C1` (centres undefined), which IC50 (PRMT5/MEP50 complex) is on record?
Answer: < 100 nM

Question: What about the EC50 [1] of the same molecule?
Answer: < 100 nM

Question: What about the EC50 [2] of the same molecule?
Answer: 101 to 1000 nM

Question: With `CS(=O)(=O)N1CCc2c(cccc2OCC(=O)NCC(O)CN2CCc3ccccc3C2)C1` (centres undefined) as the molecule, how does the IC50 (PRMT5/MEP50 complex) read?
Answer: < 100 nM

Question: And the EC50 [1]?
Answer: < 100 nM

Question: What about the EC50 [2] of the same molecule?
Answer: 1000 to 10000 nM

Question: For `O=C(COc1cccc2ncc(=O)[nH]c12)NCC(O)CN1CCc2ccccc2C1` (centres undefined), which IC50 (PRMT5/MEP50 complex) is on record?
Answer: 101 to 1000 nM

Question: And the EC50 [1]?
Answer: 1000 to 10000 nM

Question: And the EC50 [2]?
Answer: > 20000 nM

Question: Which results are given for `CC(Oc1ccccc1S(C)(=O)=O)C(=O)NCC(O)CN1CCc2ccccc2C1` (centres undefined)?
Answer: IC50 (PRMT5/MEP50 complex): 101 to 1000 nM; EC50 [1]: 1000 to 10000 nM; EC50 [2]: > 20000 nM

Question: Which results are given for `O=C(COc1cccc2c1OCC(=O)N2)NCC(O)CN1CCc2ccccc2C1` (centres undefined)?
Answer: IC50 (PRMT5/MEP50 complex): 1000 to 10000 nM; EC50 [1]: 1000 to 10000 nM; EC50 [2]: > 20000 nM

Question: For `CN1CCc2c(cccc2OCC(=O)NCC(O)CN2CCc3ccccc3C2)C1` (centres undefined), which IC50 (PRMT5/MEP50 complex) is on record?
Answer: < 100 nM

Question: What about the EC50 [1] of the same molecule?
Answer: 101 to 1000 nM

Question: And the EC50 [2]?
Answer: 1000 to 10000 nM

Question: With `O=C(COc1cccc2c1CNCC2)NCC(O)CN1CCc2ccccc2C1` (centres undefined) as the molecule, how does the IC50 (PRMT5/MEP50 complex) read?
Answer: < 100 nM

Question: What about the EC50 [1] of the same molecule?
Answer: 101 to 1000 nM

Question: And the EC50 [2]?
Answer: 10000 to 50000 nM

Question: Which IC50 (PRMT5/MEP50 complex) does the source give for `CS(=O)(=O)N1CCN(c2ccccc2OCC(=O)NCC(O)CN2CCc3ccccc3C2)CC1` (centres undefined) here?
Answer: 101 to 1000 nM

Question: What about the EC50 [1] of the same molecule?
Answer: 101 to 1000 nM

Question: And the EC50 [2]?
Answer: > 20000 nM

Question: Which results are given for `Cn1cc2c(OCC(=O)NCC(O)CN3CCc4ccccc4C3)cccc2n1` (centres undefined)?
Answer: IC50 (PRMT5/MEP50 complex): 101 to 1000 nM; EC50 [1]: 1000 to 10000 nM; EC50 [2]: > 20000 nM

Question: Which IC50 (PRMT5/MEP50 complex) does the source give for `O=C(COc1ccccc1S(=O)(=O)N1CCNCC1)NCC(O)CN1CCc2ccccc2C1` (centres undefined) here?
Answer: < 100 nM

Question: What about the EC50 [1] of the same molecule?
Answer: < 100 nM

Question: What about the EC50 [2] of the same molecule?
Answer: 1000 to 10000 nM

Question: Which results are given for `COc1ccc2cccc(OCC(=O)NC[C@@H](O)CN3CCc4ccccc4C3)c2n1`?
Answer: IC50 (PRMT5/MEP50 complex): < 100 nM; EC50 [1]: < 100 nM; EC50 [2]: 1000 to 10000 nM

Question: For `CN1CCCC(c2ccccc2OCC(=O)NCC(O)CN2CCc3ccccc3C2)C1` (centres undefined), which IC50 (PRMT5/MEP50 complex) is on record?
Answer: < 100 nM

Question: What about the EC50 [1] of the same molecule?
Answer: 101 to 1000 nM

Question: What about the EC50 [2] of the same molecule?
Answer: 1000 to 10000 nM

Question: For `O=C(COc1ccccc1S(=O)(=O)N1CCC(O)C1)NCC(O)CN1CCc2ccccc2C1` (centres undefined), which IC50 (PRMT5/MEP50 complex) is on record?
Answer: < 100 nM

Question: What about the EC50 [1] of the same molecule?
Answer: < 100 nM

Question: And the EC50 [2]?
Answer: 101 to 1000 nM

Question: For `O=C(COc1ccccc1C1CCNCC1)NCC(O)CN1CCc2ccccc2C1` (centres undefined), which IC50 (PRMT5/MEP50 complex) is on record?
Answer: < 100 nM

Question: What about the EC50 [1] of the same molecule?
Answer: 101 to 1000 nM

Question: And the EC50 [2]?
Answer: > 20000 nM

Question: Which results are given for `CN(C)C(=O)c1ccccc1OCC(=O)NCC(O)CN1CCc2ccccc2C1` (centres undefined)?
Answer: IC50 (PRMT5/MEP50 complex): 101 to 1000 nM; EC50 [1]: 101 to 1000 nM; EC50 [2]: 10000 to 50000 nM

Question: For `O=C(COc1ccccc1S(=O)(=O)N1CCCC1)NCC(O)CN1CCc2ccccc2C1` (centres undefined), which IC50 (PRMT5/MEP50 complex) is on record?
Answer: < 100 nM

Question: And the EC50 [1]?
Answer: < 100 nM

Question: And the EC50 [2]?
Answer: 101 to 1000 nM

Question: Which IC50 (PRMT5/MEP50 complex) does the source give for `CN1CCc2cccc(OCC(=O)NCC(O)CN3CCc4ccccc4C3)c2C1` (centres undefined) here?
Answer: 101 to 1000 nM

Question: And the EC50 [1]?
Answer: 1000 to 10000 nM

Question: And the EC50 [2]?
Answer: > 20000 nM

Question: Which IC50 (PRMT5/MEP50 complex) does the source give for `CNS(=O)(=O)c1ccccc1OCC(=O)NCC(O)CN1CCc2ccccc2C1` (centres undefined) here?
Answer: < 100 nM

Question: What about the EC50 [1] of the same molecule?
Answer: 101 to 1000 nM

Question: What about the EC50 [2] of the same molecule?
Answer: 1000 to 10000 nM

Question: With `CN(C)c1ccc2cccc(OCC(=O)NC[C@H](O)CN3CCc4ccccc4C3)c2n1` as the molecule, how does the IC50 (PRMT5/MEP50 complex) read?
Answer: 101 to 1000 nM

Question: What about the EC50 [1] of the same molecule?
Answer: 1000 to 10000 nM

Question: And the EC50 [2]?
Answer: > 20000 nM

Question: For `O=C(COc1ccccc1C1CCCNC1)NCC(O)CN1CCc2ccccc2C1` (centres undefined), which IC50 (PRMT5/MEP50 complex) is on record?
Answer: 101 to 1000 nM

Question: And the EC50 [1]?
Answer: 101 to 1000 nM

Question: And the EC50 [2]?
Answer: 1000 to 10000 nM

Question: Which results are given for `CN(C)c1ncccc1OCC(=O)NCC(O)CN1CCc2ccccc2C1` (centres undefined)?
Answer: IC50 (PRMT5/MEP50 complex): 101 to 1000 nM; EC50 [1]: 1000 to 10000 nM; EC50 [2]: > 20000 nM

Question: Which IC50 (PRMT5/MEP50 complex) does the source give for `CC(=O)N1CCN(S(=O)(=O)c2ccccc2OCC(=O)NCC(O)CN2CCc3ccccc3C2)CC1` (centres undefined) here?
Answer: 101 to 1000 nM

Question: What about the EC50 [1] of the same molecule?
Answer: 1000 to 10000 nM

Question: And the EC50 [2]?
Answer: > 20000 nM

Question: What does the source list for `CNC(=O)c1ccccc1OCC(=O)NCC(O)CN1CCc2ccccc2C1` (centres undefined)?
Answer: IC50 (PRMT5/MEP50 complex): 101 to 1000 nM; EC50 [1]: 101 to 1000 nM; EC50 [2]: > 20000 nM

Question: With `CN1CCN(S(=O)(=O)c2ccccc2OCC(=O)NCC(O)CN2CCc3ccccc3C2)CC1` (centres undefined) as the molecule, how does the IC50 (PRMT5/MEP50 complex) read?
Answer: < 100 nM

Question: What about the EC50 [1] of the same molecule?
Answer: 101 to 1000 nM

Question: What about the EC50 [2] of the same molecule?
Answer: 10000 to 50000 nM

Question: With `CN(C)c1ccc2cccc(OCC(=O)NC[C@@H](O)CN3CCc4ccccc4C3)c2n1` as the molecule, how does the IC50 (PRMT5/MEP50 complex) read?
Answer: < 100 nM

Question: And the EC50 [1]?
Answer: 101 to 1000 nM

Question: And the EC50 [2]?
Answer: 1000 to 10000 nM
